The source of these data is article PMC9500072, “Topical application of an irreversible small molecule inhibitor of lysyl oxidases ameliorates skin scarring and fibrosis” (Nature Communications, 2022).

“And” between values parts separate entries of the source, which are not always exact repeats. Equal values may be shown once.

In one data set the target is Dog Aorta LOX (Canis lupus familiaris, UniProt A0A8I3N9H6). Format: biochemical. The procedure:
The measurement of the enzymatic activity of all lysyl oxidase family members was based on the detection of hydrogen peroxide with an Amplex-Red oxidation assay, as previously described; miniaturized in 384 well formats, with the appropriate combination of substrate and assay buffer for each individual enzyme. After a 30 min pre-incubation of the enzyme at 37 °C with the test compound (or with different incubation times for the time-dependency assay), one volume of reaction mixture containing 120 μM Amplex Red (AR) (Life Technologies), 1.5 U/mL horseradish peroxidase (HRP) (Sigma-Aldrich) and the specific substrate was added to each sample. The relative fluorescence units (RFU) were then measured every 2.5 min for 30 min at 37 °C, excitation 565 nm and emission 590, on a BMG Clariostar Microplate Reader. All the substrates were used at concentrations corresponding to their Km towards the corresponding enzyme, or with a range of different concentrations for the substrate competition experiments.
Lysyl oxidases assay buffer contained 1.2 M urea, 50 mM sodium borate buffer, pH 8.2 and 100 µM β-aminoproprionitrile (BAPN, Sigma-Aldrich) was used for low control. […]

The subject of data set [1] is primary human dermal fibroblasts. Description: qPCR COL1A1 and LOX gene expression. The format is cell-based. More on the design: key to qPCR COLIAI / qPCRLOX: relative expression by 2^−ΔΔCt, GAPDH/PGK1 housekeeping. The procedure: Changes in COL1A1 and LOX gene expression in PXS-4787 treated cells were done using primary human dermal fibroblasts (50,000) seeded in a 6-well plate under Scar-in-a-jar media. The cells were incubated with 0 µM, 1 µM, and 10 µM PXS-4787 treatment for 48 h. mRNA was extracted using RNeasy mini kit® according to the manufacturer’s protocol (Qiagen Gmbh). The total concentration and purity of RNA were determined using a NAnodrop 2000C (Thermo Scientific, USA). For reverse transcription, mRNA was converted to cDNA using QuantiTect Reverse Transcription kit (Qiagen; Catalog no. 205311) according to the manufacturer’s protocol. Quantitative real-time RT-PCR was conducted using SYBR Green Master Mix (Qiagen; Catalog no. 204143) and Rotor gene Q thermocycler (Qiagen). The reactions were carried out in triplicate in 20 µl total volume containing 1 µl cDNA and 2 µl primers. The QuantiTect Primer assay for COL1A1 (Catalog no. QT00037793), LOX (Catalog no. QT00017311) were used. GAPDH (Catalog no. QT00079247) and PGK1 (Catalog no. 249900) were used as a housekeeping gene. The data were analyzed using Rotor geneQ software and the relative gene expression was calculated using the 2−^(∆∆c (t)) method. Three biological samples were used for each condition.
Background: Quantitative PCR measures a nucleic acid by following its amplification.

In another data set the target is Dopamine D4.2 (Homo sapiens, UniProt P21917, DEL265-296). Description: Eurofins panel 219900. Format: binding.
Data set [2] can be described thus: LeadProfilingScreen, Eurofins CEREP Panlabs, 68 assays. Format: binding. The settings on record: test concentration 10 µM.
The target of the next data set is Adrenergic α1D (Homo sapiens, UniProt P25100). Kind of data set: Eurofins panel 203400. The format is binding.
Chain of Adrenergic α1D (P25100 whole entry): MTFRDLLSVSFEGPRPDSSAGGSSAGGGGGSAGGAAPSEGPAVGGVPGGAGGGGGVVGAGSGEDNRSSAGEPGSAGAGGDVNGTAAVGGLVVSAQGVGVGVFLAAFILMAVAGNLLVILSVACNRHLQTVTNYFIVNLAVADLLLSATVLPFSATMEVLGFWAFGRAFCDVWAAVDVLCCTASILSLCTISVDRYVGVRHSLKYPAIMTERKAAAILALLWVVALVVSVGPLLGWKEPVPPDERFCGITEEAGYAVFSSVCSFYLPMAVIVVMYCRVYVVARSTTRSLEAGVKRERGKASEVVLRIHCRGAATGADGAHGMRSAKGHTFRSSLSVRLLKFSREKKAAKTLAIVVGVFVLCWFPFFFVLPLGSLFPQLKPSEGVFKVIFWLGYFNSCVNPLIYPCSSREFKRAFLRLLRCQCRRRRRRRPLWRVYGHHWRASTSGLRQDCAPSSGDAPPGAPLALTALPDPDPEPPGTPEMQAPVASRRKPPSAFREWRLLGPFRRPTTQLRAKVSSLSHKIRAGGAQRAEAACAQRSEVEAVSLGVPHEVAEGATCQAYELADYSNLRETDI
The target in another data set is Adenosine A1 (Homo sapiens, UniProt P30542). Kind of data set: Eurofins panel 200510. Format: binding.
Chain of Adenosine A1 (P30542 whole entry): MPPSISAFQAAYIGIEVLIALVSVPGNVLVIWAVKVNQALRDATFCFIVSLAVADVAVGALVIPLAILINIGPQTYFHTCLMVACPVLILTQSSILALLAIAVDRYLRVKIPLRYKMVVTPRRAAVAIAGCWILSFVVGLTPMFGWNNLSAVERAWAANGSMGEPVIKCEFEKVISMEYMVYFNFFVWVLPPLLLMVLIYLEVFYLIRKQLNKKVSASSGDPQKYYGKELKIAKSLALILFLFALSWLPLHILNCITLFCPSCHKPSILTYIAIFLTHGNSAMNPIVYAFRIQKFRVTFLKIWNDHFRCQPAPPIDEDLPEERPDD
The subject of a further data set is Phorbol Ester. Kind of data set: Eurofins panel 264500. The settings on record: 10 µM. The format is binding, mouse.
Another data set concerns the target Dopamine D3 (Homo sapiens, UniProt P35462). Kind of data set: Eurofins panel 219800. The format is binding.
Data set [3] addresses Nicotinic Acetylcholine α1, Bungarotoxin (Homo sapiens, UniProt P02708+P07510+Q07001). Description: Eurofins panel 258700. The settings on record: read-out: % Inh. Format: binding.
The target of another data set is Prostanoid EP4 (Homo sapiens, UniProt P35408). Description: Eurofins panel 268420. The format is binding.
The next data set deals with Glutamate, NMDA, Glycine. Description: Eurofins panel 232910. Format: binding, rat. The following applies: 10 µM.
The next data set deals with Rolipram. Description: Eurofins panel 270000. The format is binding, rat. The following applies: 10 µM.
Another data set deals with Transporter, GABA (Rattus norvegicus, UniProt P23978). Description: Eurofins panel 226400. The format is binding.
A short description of data set [4]: Franz Cell skin permeability assay. Format: in vitro ADME, human. The following applies: 3% cream on epidermis of human skin ex vivo.
The next data set deals with hERG potassium channel (Homo sapiens, UniProt Q12809). Description: Eurofins panel 265910. The settings on record: probe [3H]Dofetilide. The format is binding.
Chain of hERG potassium channel (Q12809 whole entry): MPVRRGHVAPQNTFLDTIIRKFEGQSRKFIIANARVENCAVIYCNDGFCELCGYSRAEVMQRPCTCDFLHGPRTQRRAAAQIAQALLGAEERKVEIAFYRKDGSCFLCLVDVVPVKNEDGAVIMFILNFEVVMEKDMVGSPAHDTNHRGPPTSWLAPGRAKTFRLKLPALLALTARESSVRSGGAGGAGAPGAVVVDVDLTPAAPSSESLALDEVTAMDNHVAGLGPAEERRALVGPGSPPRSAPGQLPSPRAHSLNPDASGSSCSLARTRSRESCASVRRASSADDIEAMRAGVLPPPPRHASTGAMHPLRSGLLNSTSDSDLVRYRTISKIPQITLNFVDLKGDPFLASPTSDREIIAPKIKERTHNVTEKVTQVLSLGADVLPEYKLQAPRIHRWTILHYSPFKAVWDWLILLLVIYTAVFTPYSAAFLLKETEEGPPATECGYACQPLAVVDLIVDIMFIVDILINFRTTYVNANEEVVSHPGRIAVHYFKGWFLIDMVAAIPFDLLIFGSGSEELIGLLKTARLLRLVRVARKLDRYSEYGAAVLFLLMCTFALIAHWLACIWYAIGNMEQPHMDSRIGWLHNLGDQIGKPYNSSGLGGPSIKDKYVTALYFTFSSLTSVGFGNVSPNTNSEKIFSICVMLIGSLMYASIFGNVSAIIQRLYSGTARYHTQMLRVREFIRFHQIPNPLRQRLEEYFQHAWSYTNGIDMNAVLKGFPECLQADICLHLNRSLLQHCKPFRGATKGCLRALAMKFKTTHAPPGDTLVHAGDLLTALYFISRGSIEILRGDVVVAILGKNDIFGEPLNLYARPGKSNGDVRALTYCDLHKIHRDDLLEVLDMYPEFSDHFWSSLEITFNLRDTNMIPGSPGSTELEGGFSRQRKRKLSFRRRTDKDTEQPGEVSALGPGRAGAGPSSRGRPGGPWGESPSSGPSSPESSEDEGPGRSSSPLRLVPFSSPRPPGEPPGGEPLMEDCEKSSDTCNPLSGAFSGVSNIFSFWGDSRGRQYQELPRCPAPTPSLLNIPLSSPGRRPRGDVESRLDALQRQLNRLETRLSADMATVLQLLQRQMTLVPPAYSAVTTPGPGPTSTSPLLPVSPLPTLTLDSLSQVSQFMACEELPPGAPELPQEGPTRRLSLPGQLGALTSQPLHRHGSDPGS
Data set [5] deals with Serotonin (5-Hydroxytryptamine) 5-HT2A (Homo sapiens, UniProt P28223). Kind of data set: Eurofins panel 271650. Format: binding.
Chain of Serotonin (5-Hydroxytryptamine) 5-HT2A (P28223 whole entry): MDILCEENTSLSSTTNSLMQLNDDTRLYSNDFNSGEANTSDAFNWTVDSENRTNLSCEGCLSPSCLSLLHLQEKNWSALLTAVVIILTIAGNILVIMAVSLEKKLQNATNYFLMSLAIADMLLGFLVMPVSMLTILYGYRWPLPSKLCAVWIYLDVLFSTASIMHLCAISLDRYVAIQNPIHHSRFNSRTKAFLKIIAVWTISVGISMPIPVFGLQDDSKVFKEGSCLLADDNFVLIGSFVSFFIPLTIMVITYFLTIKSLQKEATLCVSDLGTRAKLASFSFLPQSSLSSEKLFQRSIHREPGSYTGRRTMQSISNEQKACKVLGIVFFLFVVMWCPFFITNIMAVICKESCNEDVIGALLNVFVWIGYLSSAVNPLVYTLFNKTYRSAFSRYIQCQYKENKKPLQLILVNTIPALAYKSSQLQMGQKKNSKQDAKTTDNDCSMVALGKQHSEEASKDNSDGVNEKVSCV
Another data set concerns the target Phosphodiesterase PDE3A (Homo sapiens, UniProt Q14432). Kind of data set: Eurofins panel 152300. Format: biochemical.
In another data set the target is Vasopressin V1A (Homo sapiens, UniProt P37288). Description: Eurofins panel 287530. Format: binding.
A further data set deals with lysyl oxidases. More on the design: method as in ACTRN1262100322831. The settings on record: ref ACTRN1262100322831; cited from earlier work.
In data set [6] the test system is MDCKII cells transfected with P-glycoprotein (Pgp). Kind of data set: MDCKII-Pgp permeability. The format is in vitro ADME. The settings on record: unaffected by the presence of the Pgp-inhibitor. The procedure: The penetration of PXS-6302 across a monolayer of cells was tested using Caco-2 or MDCKII cells transfected with P-glycoprotein (Pgp).

Chain of Dog Aorta LOX (A0A8I3N9H6 entry or part of it): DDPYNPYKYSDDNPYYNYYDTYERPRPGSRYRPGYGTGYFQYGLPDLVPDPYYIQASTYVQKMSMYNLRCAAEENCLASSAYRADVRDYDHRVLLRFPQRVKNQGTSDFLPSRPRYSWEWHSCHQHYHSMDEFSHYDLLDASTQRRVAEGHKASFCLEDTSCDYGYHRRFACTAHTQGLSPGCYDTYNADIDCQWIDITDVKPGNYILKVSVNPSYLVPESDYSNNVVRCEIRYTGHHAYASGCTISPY
Chain of Nicotinic Acetylcholine α1, Bungarotoxin (P07510 23-517): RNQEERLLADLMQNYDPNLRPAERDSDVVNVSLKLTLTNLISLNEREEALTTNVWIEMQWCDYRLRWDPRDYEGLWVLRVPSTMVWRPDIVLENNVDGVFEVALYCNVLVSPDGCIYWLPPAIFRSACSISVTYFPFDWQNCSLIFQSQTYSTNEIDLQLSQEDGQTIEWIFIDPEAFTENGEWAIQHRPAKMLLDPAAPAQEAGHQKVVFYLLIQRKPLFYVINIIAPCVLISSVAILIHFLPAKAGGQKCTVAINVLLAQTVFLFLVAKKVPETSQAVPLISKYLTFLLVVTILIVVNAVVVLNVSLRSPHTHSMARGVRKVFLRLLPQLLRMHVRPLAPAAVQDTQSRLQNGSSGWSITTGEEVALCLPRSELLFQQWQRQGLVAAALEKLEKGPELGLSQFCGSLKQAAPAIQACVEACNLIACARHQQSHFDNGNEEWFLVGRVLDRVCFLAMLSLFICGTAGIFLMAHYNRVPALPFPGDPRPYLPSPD
Chain of Nicotinic Acetylcholine α1, Bungarotoxin (P11230 24-501, further chain): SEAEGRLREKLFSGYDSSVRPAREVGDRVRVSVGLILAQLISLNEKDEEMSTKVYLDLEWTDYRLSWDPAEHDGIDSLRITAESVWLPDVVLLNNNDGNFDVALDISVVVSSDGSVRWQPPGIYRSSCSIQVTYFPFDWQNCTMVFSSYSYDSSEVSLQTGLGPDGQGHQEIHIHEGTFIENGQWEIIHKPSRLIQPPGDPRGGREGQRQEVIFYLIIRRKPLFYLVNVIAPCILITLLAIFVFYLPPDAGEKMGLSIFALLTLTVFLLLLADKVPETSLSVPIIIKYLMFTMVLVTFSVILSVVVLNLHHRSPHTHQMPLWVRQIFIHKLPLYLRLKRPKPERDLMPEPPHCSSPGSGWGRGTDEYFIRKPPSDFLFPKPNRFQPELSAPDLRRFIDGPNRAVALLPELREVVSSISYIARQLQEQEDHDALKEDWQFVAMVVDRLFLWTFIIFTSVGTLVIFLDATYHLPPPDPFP
Chain of Nicotinic Acetylcholine α1, Bungarotoxin (P02708 21-457): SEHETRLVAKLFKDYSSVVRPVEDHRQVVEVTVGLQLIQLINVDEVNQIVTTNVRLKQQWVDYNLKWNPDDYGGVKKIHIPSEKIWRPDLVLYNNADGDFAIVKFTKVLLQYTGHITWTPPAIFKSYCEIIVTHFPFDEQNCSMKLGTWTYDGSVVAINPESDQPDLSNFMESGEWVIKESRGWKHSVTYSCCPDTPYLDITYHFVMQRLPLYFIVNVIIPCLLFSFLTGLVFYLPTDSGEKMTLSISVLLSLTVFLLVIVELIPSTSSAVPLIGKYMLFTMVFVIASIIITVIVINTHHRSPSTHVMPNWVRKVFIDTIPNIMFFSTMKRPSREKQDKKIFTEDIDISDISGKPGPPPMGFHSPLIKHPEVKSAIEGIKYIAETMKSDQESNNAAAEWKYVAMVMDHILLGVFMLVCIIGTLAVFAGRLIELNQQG
Chain of Nicotinic Acetylcholine α1, Bungarotoxin (Q07001 22-517): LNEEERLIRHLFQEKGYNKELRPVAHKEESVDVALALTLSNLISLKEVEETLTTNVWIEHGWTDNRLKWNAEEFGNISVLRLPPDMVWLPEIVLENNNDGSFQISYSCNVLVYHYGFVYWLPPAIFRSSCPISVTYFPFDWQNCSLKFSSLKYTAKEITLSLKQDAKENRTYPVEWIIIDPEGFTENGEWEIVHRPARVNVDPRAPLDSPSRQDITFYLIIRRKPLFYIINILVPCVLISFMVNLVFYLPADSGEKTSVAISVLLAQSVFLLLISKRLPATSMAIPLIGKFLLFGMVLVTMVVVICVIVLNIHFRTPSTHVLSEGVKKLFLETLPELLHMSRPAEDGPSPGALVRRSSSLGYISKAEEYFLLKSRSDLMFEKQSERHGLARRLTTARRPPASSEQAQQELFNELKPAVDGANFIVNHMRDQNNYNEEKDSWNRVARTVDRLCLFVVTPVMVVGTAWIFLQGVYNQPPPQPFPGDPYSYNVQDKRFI

The term IC50 denotes the concentration that gives 50% inhibition. Consider `N#CCCN` [BAPN, β-aminoproprionitrile, reference compound], for which, on Dog Aorta LOX, the “Dog Aorta LOX pIC50±SD” value is reported as 5.7 ± 0.1 and the IC50 came out at 2.13 µM.
Regarding `NC/C=C(\F)CS(=O)(=O)c1ccccc1` [PXS-4787], in data set [1] (0, 1, 10 µM, 48 h), the “COL1A1 or LOX RNA levels” value was “No change”. Further, the “qPCR COLIAI” value was 0.9946 and 1.0482 and 1.0167 in data set [1] (1μM); 0.9655 and 0.9268 and 1.013 in data set [1] (10 µM). For the same compound, the qPCRLOX in data set [1] (1μM) was 1.068 and 1.006 and 0.9855; in [1] (10 µM), 0.9777 and 0.8786 and 0.9515. Moreover, the inhibition at 10 µM is 1% on Dopamine D4.2; -1% on Adrenergic α1D; 1% at Adenosine A1; 0% against Dopamine D3; -3% in [3]; -2% on Prostanoid EP4. Besides, the inhibition at 10 µM at Transporter, GABA turned out to be 0%. For the same compound, in [2], the “profile in broad panel of macromolecular targets” value is “clean”. Further, the “% Inh.” value was 5% with Phorbol Ester; 5% with Glutamate, NMDA, Glycine; 17% in the data set on Rolipram.
As for `NC/C=C(\F)C(F)(F)S(=O)(=O)c1ccccc1` [PXS-6302], the “further increase of concentration in reservoir chamber over the next 14 h” value in [4] is given as 10 fold. The “increase of concentration in reservoir chamber between 2 and 6 h” value in [4] stood at 10 fold. The inhibition at 30 µM was 29% against hERG potassium channel, 25% in [5], -4% against Phosphodiesterase PDE3A and 3% at Vasopressin V1A. For the same compound, the “target engagement and inhibition in phase I trial” value in the data set with lysyl oxidases is “strong target engagement and long-lasting inhibition”. Also, the “MDCKII-Pgp permeability (class in words)” value in data set [6] is reported as “high permeability”.
